Values quoted from earlier work as cited in patent US20060018840A1, “Aerosolizable formulation comprising nicotine” (priority 2004, published 2006).

CC(O)C(=O)O (stereo not shown) [lactic acid]
pKa: about 3.8
